Data published in US9630947B2, “Therapeutic compounds and related methods of use” (OTSUKA PHARMACEUTICAL CO., LTD., priority 2009, dated 2017).

Biological target: T1, purified STEP46 enzyme (Homo sapiens, UniProt P54829)
T1 sequence (P54829 1-565): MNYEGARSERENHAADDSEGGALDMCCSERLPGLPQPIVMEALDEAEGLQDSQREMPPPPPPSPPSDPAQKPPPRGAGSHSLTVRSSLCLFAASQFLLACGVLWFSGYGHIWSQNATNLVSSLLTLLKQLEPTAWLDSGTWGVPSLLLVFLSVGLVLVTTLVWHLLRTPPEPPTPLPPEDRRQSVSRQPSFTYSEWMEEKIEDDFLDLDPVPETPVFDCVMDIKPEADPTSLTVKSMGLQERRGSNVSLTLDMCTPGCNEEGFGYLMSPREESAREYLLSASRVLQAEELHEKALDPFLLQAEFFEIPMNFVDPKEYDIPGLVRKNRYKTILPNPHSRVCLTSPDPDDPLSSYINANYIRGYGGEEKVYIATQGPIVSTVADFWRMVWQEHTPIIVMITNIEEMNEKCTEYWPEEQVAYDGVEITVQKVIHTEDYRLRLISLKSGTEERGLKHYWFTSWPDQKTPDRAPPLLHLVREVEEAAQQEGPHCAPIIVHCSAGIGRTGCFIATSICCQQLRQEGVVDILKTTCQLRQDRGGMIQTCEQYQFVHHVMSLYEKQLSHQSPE
Experiment: STEP46 biochemical assay (DiFMUP fluorescence phosphatase assay)
Details: DiFMUP 10 μM, read-out: STEP IC50
Procedure: STEP46 Biochemical Assays
Serial dilutions of compounds were performed in 100% DMSO and 1 uL of compounds were dispensed into 384-well black polystyrene plates (Corning, NY). Compounds were incubated with 24 uL of buffer containing 50 mM Hepes, 1 mM DTT, 0.02% Brij35, 1 ng/well purified STEP46 enzyme for 30 min at room temperature. The reaction was initiated by addition of 25 uL of DiFMUP (6, 8-difluoro-4-methylumbelliferyl phosphate) (InVitrogen, CA) with a final concentration of 10 μM and incubated at 27° C. for 90 min. Final DMSO concentration is 2%. Plates were read with florescence intensity at excitation/emission of 360/460 nm using a PheraStar plate reader (BMG Labtech, NC).
Data were expressed as percentage (%) inhibition of enzyme activity. 0% inhibition is defined as the RFUs (relative fluorescence units) in the absence of compounds and 100% inhibition is defined as RFUs in the absence of STEP46 enzyme. IC50 values of compounds with inhibitory activity against STEP46 were determined by GraphPad Prism (version 4.03) using four parameter logistic equation. Some compounds act as activators. For compounds showing STEP46 enzymatic activation, data are represented as percentage of inhibition but with negative values at three representative concentrations (25, 50 and 100 uM).

SMILES | IC50
COc1ccc2nc(-c3cccnc3)nc(Nc3ccc4oc(=O)[nH]c4c3)c2c1 [Compound 317] | 1000 to 10000 nM
CNc1nc(-c2cccnc2)nc2cc(-c3ccc(C#N)cc3)ccc12 [Compound 1365] | 1000 to 10000 nM
CNc1nc(-c2cccnc2)nc2cc(-c3cccc(C#N)c3)c(C)cc12 [Compound 1409] | 1000 to 10000 nM
FC(F)Oc1cccc(Nc2nc(-c3cnccn3)nc3cc(Cl)ccc23)c1 [Compound 1145] | 1000 to 10000 nM
CCOc1ccc(-c2ccc3nc(-c4cccnc4)nc(Nc4ccc(F)c(Cl)c4)c3c2)cn1 [Compound 661] | < 1000 nM
COc1ncc(-c2ccc3c(Nc4ccc(F)c(Cl)c4)nc(-c4cccnc4)nc3c2)cn1 [Compound 679] | < 1000 nM
CNc1nc(-c2cccnc2)nc2cc(-c3ccc(F)cc3F)ccc12 [Compound 1372] | 1000 to 10000 nM
Fc1ccc(Nc2nc(-c3cccnc3)nc3ccc(-c4ccc(Cl)cc4)cc23)cc1Cl [Compound 630] | 1000 to 10000 nM
N#Cc1cccc(Nc2nc(-c3cnccn3)nc3ccccc23)c1 [Compound 1221] | > 10000 nM
CN(C)c1nc(-c2cccnc2)nc2cc(-c3cc(F)ccc3F)ccc12 [Compound 1396] | 1000 to 10000 nM
COc1ccc2nc(-c3cccnc3)nc(Nc3nc(-c4cccc(F)c4F)cs3)c2c1 [Compound 452] | < 1000 nM
CNc1nc(-c2cccnc2)nc2cc(-c3ccc(F)cc3)ccc12 [Compound 1360] | 1000 to 10000 nM
Fc1ccc(Nc2nc(-c3cccnc3)nc3cc(-c4cccnc4)ccc23)cc1Cl [Compound 677] | > 10000 nM
N#Cc1cccc(Nc2nc(-c3ccnnc3)nc3ccccc23)c1 [Compound 1217] | 1000 to 10000 nM
CNc1nc(-c2cccnc2)nc2ccc(-c3ccc(F)cc3F)c(C)c12 [Compound 1286] | 1000 to 10000 nM
COc1ncccc1-c1ccc2nc(-c3cccnc3)nc(Nc3ccc(F)c(Cl)c3)c2c1 [Compound 650] | < 1000 nM
CNc1c(-c2cc(F)cc(F)c2)ccc2nc(-c3cccnc3)nc(C)c12 [Compound 1422] | 1000 to 10000 nM
CNc1nc(-c2cccnc2)nc2cc(-c3ccc(OC)cc3)c(C)cc12 [Compound 1413] | 1000 to 10000 nM

SMILES | IC50
COc1ccc2nc(-c3cccnc3)nc(Nc3ccc4oc(=O)n(C)c4c3)c2c1 [Compound 318] | 1000 to 10000 nM
CNc1nc(-c2cccnc2)nc2cc(C)c(-c3ccc(F)c(F)c3)cc12 [Compound 1416] | 1000 to 10000 nM
N#Cc1ccccc1-c1ccc2c(Nc3ccc(F)c(Cl)c3)nc(-c3cccnc3)nc2c1 [Compound 685] | < 1000 nM
CNc1nc(-c2cccnc2)nc2cc(-c3ccc(F)c(F)c3)ccc12 [Compound 1373] | 1000 to 10000 nM
CNc1nc(-c2cccnc2)nc2cc(C)c(-c3ccc(OC)cc3)cc12 [Compound 1420] | 1000 to 10000 nM
Cc1cc(Cl)cc2c(Nc3cc(Cl)cc(Cl)c3)nc(-c3cnccn3)nc12 [Compound 1229] | 1000 to 10000 nM
COc1ccc2nc(-c3cccnc3)nc(Nc3nc(-c4ccc(C(F)(F)F)cc4)cs3)c2c1 [Compound 443] | < 1000 nM
COc1ccc2nc(-c3cccnc3)nc(Nc3ccc(C)c(C)c3)c2c1 [Compound 923] | 1000 to 10000 nM
Fc1ccc(-c2ccc3c(Nc4ccc(F)c(Cl)c4)nc(-c4cccnc4)nc3c2)cc1F [Compound 674] | 1000 to 10000 nM
CNc1nc(-c2cccnc2)nc2c(C)c(-c3cc(F)cc(F)c3)ccc12 [Compound 1448] | 1000 to 10000 nM
Fc1ccc(Nc2nc(-c3cccnc3)nc3cc(-c4cncnc4)ccc23)cc1Cl [Compound 678] | 1000 to 10000 nM
Fc1ccc(Nc2nc(-c3cnccn3)nc3ccccc23)cc1F [Compound 1220] | > 10000 nM
Clc1ccc2nc(-c3cnccn3)nc(Nc3ccc(Cl)c(Cl)c3)c2c1 [Compound 1160] | 1000 to 10000 nM
COc1ccc2nc(-c3cccnc3)nc(Nc3nc(-c4ccc(F)cc4F)cs3)c2c1 [Compound 446] | 1000 to 10000 nM
Fc1ccc(Nc2nc(-c3cccnc3)nc3cc(-c4ccccc4F)ccc23)cc1Cl [Compound 687] | < 1000 nM
COc1ccc2nc(-c3cccnc3)nc(Nc3nc(-c4cccc(C(F)(F)F)c4)cs3)c2c1 [Compound 449] | 1000 to 10000 nM
FC1(F)Oc2ccc(Nc3nc(-c4cccnc4)nc4ccc(-c5cccnc5)cc34)cc2O1 [Compound 312] | < 1000 nM

Now from value to molecule:

IC50 | SMILES
1000 to 10000 nM | COc1cccc(-c2ccc3nc(-c4cccnc4)nc(Oc4ccc(Cl)c(Cl)c4)c3c2)c1 [Compound 391]
1000 to 10000 nM | CNc1nc(-c2cccnc2)nc2c(C)c(-c3cccc(OC)c3)ccc12 [Compound 1456]
1000 to 10000 nM | CC(=O)Nc1nc(-c2cccnc2)nc2ccc(-c3cccc(F)c3F)cc12 [Compound 1369]
1000 to 10000 nM | COc1ccc2nc(-c3cccnc3)nc(Nc3ccc(-c4ccc(Cl)cc4)cc3)c2c1 [Compound 424]
1000 to 10000 nM | COc1cccc(-c2ccc3nc(-c4cccnc4)nc(Oc4ccccc4C(N)=O)c3c2)c1 [Compound 393]
< 1000 nM | NC(=O)c1ccc(-c2ccc3nc(-c4cccnc4)nc(Nc4ccc(F)c(Cl)c4)c3c2)cc1 [Compound 656]
< 1000 nM | COc1ccc2nc(-c3cccnc3)nc(Nc3nc(-c4ccc(C)cc4)cs3)c2c1 [Compound 429]
1000 to 10000 nM | COc1ccc2nc(-c3cccnc3)nc(Nc3ncc(-c4ccccc4)s3)c2c1 [Compound 418]
1000 to 10000 nM | COc1cccc(-c2ccc3nc(-c4cccnc4)nc(Nc4ccc(F)c(Cl)c4)c3c2)c1OC [Compound 644]
< 1000 nM | O=[N+]([O-])c1cccc(-c2ccc3nc(-c4cccnc4)nc(Nc4ccc(F)c(Cl)c4)c3c2)c1 [Compound 635]
< 1000 nM | COc1cc(OC)cc(-c2ccc3nc(-c4cccnc4)nc(Nc4ccc(F)c(Cl)c4)c3c2)c1 [Compound 642]
1000 to 10000 nM | COc1ccc2nc(-c3cccnc3)nc(Nc3nc(-c4cccc(F)c4)cs3)c2c1 [Compound 441]
1000 to 10000 nM | COc1cc(-c2ccc3nc(-c4cccnc4)nc(Nc4ccc(F)c(Cl)c4)c3c2)cc(C(F)(F)F)c1 [Compound 664]
< 1000 nM | COc1ccc2nc(-c3cccnc3)nc(Nc3nc(-c4ccccc4Br)cs3)c2c1 [Compound 451]
< 1000 nM | NC(=O)c1ccccc1Nc1nc(-c2cccnc2)nc2cc(-c3ccccc3F)ccc12 [Compound 702]
< 1000 nM | NC(=O)c1ccccc1Nc1nc(-c2cccnc2)nc2cc(Br)ccc12 [Compound 699]
1000 to 10000 nM | COc1cccc(-c2ccc3nc(-c4cccnc4)nc(Oc4ccc(F)c(F)c4)c3c2)c1 [Compound 392]
1000 to 10000 nM | COc1ccc2nc(-c3cccnc3)nc(Oc3ccccc3)c2c1 [Compound 348]
< 1000 nM | NC(=O)c1ccccc1Nc1nc(-c2cccnc2)nc2cc(-c3ccc(F)c(F)c3)ccc12 [Compound 703]
< 1000 nM | CCOc1cccc(-c2ccc3nc(-c4cccnc4)nc(Nc4ccc(F)c(Cl)c4)c3c2)c1 [Compound 657]
1000 to 10000 nM | COc1ccc2nc(-c3cccnc3)nc(Nc3ccc4ccoc4c3)c2c1 [Compound 314]
> 10000 nM | Fc1ccc(Nc2nc(-c3cccnc3)nc3ccc(-c4ccccc4Cl)cc23)cc1Cl [Compound 636]
> 10000 nM | CN(C)c1nc(-c2cccnc2)nc2ccc(-c3ccccc3[N+](=O)[O-])cc12 [Compound 1334]
1000 to 10000 nM | CCCOCCOc1cccc(-c2ccc3nc(-c4cccnc4)nc(NC)c3c2)c1 [Compound 1497]
1000 to 10000 nM | Fc1ccc(Nc2nc(-c3cccnc3)nc3ccc(-c4cccc(Cl)c4)cc23)cc1Cl [Compound 629]
